Measured values as given in patent publication US20230331707A1, “PROGRAMMED CELL NECROSIS INHIBITOR, PREPARATION METHOD THEREFOR, AND USE THEREOF” (Shanghai Institute of Organic Chemistry, Chinese Academy of …, priority 2020, published 2023).

Tested on: phosphorylation of RIPK1 and phosphorylation of downstream protein MLKL
Assay: Programmed necrosis pathway signals by western blot in FADD-deficient Jurkat cells
Format: cell-based, human
Settings: 1.6 nM
Experimental: In order to verify whether the compounds of the present invention can inhibit programmed cell necrosis by inhibiting the activity of RIPK1, and to detect the changes in the signal of the programmed necrosis pathway. FADD-deficient Jurkat or L929 cells treated with the compound of the present invention were used, and TNFα was added to induce programmed necrosis. Then the cells were collected and phosphorylation of RIPK1 and oligomerization of MLKL were detected using western blot.
Methods: FADD-deficient Jurkat cells or L929 cells were cultured in vitro. After growing to the logarithmic growth phase, the cells were collected, centrifuged at 1000 rpm for 5 min, the supernatant was discarded, and the cell concentration was adjusted to 1×10^6/mL. In the 12-well cell culture plate, each well was added with 1 ml of cells, and 0.2 μL of DMSO solution with a concentration of 50 mM drug or pure DMSO control, and pretreated for 1 h. 0.5 μL of TNF α (PBS solution) with a concentration of 100 μg/ml was added to each stimulated group. […] The BCA protein quantification kit was used to detect the protein content of each group, and PIPA lysis buffer was used to adjust the protein amount to make the final volume being 100 μL. […] The resulting sample was incubated with ECL luminescent solution and the luminescent signal was detected.

SMILES: Cn1ncc(C(=O)NCc2ccc(-n3cnc4c(N)ncnc43)cc2)c1Cc1ccccc1 [QY-10-40]
- inhibition of phosphorylation of RIPK1 and of downstream protein MLKL: effectively inhibit
